The structures appear in SMILES notation.

The target of this experiment is T1, cDNA, FLJ78895, highly similar to 3-oxo-5-alpha-steroid 4-dehydrogenase 1 (Homo sapiens, UniProt B7Z4L2).
T1 sequence (B7Z4L2 whole entry): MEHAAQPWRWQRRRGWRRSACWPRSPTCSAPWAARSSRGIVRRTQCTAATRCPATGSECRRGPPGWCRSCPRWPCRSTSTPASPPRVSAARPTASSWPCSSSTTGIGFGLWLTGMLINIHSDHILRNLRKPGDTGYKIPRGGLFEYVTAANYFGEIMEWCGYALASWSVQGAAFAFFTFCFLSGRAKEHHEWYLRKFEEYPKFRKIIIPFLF
Put plainly: 5α-Reductase Activity Assay. Particulars: pH 6.5; 37 °C. The method, then: The reaction mixtures contained a final volume of 1 mL, 1 mM DTT, sodium phosphate buffer 40 mM, at pH 6.5, 2 mM, NADPH, 2 nM [1,2,6,7-3H]T or [1,2,3,7-3H(N)] 4-dione and the prostatic enzyme fractions. The amount of prostatic enzyme fractions was determined to adjust the rate of conversion of T to DHT or 4-dione to 5α-dione to around 28%. T, DHT, unlabeled 4-dione or 5α-dione concentrationswere adjusted to 25-250 nM in the incubating medium, by adding one of the following reagents cold T, DHT, unlabeled 4-dione or 5α-dione. The reactions in duplicate were started when added to the enzymatic fraction (400 μg protein in a volume of 80 μL) incubated at 37°C for 60 min13 and stopped by mixing with 1 mL ofdichloromethane. Incubation without tissue was used as a control. All reactions were carried out in two different times by duplicate.
On to `CC(=O)O[C@]1(C(C)=O)CCC2C3CCC4=CC(=O)CCC4(C)C3CCC21C` (some centres not stated) [3,20-Dioxopregn-4-ene-17-yl acetate (4)], for which the IC50 (as a rule, the concentration needed to halve the response being measured) was found to be 500 nM.
To `CCc1ccc(C(=O)O[C@]2(C(C)=O)CCC3C4CCC5=C(Cl)C(=O)CCC5(C)C4CCC32C)cc1` (some centres not stated) [4-Chloro-3,20-dioxopregn-4-ene-17-yl-4-ethylbenzoate (8a)] belongs 73 nM.
In the case of `CC(=O)[C@@]1(O)CCC2C3CCC4=CC(=O)CCC4(C)C3CCC21C` (stereo partly drawn) [17α-Hydroxypregn-4-ene-3,20-dione (5)], the IC50 was determined as 2 nM.
To `CC(C)(C)NC(=O)[C@H]1CC[C@H]2[C@@H]3CC[C@H]4NC(=O)C=C[C@]4(C)[C@H]3CC[C@]12C` [4a,6a-Dimethyl-2-oxo-2,4a,4b,5,6,6a,7,8,9,9a,9b,10,11,11a-tetradecahydro-1H-indeno[5,4-f]quinoline-7-carboxylic acid tert-butylamide] belongs 1.3 nM.
On to `CC(=O)[C@@]1(O)CCC2C3CCC4=C(Cl)C(=O)CCC4(C)C3CCC21C` (stereo partly drawn) [4-Chloro-17α-hydroxypregn-4-ene-3,20-dione (7a)], for which inhibition was half-maximal at 63 nM (IC50).
`CC(=O)[C@@]1(O)CCC2C3CCC4=C(Br)C(=O)CCC4(C)C3CCC21C` (stereo partly drawn) [4-Bromo-17α-hydroxypregn-4-ene-3,20-dione (7b)] gave an IC50 of 1.6 nM.
Compound `CCc1ccc(C(=O)O[C@]2(C(C)=O)CCC3C4CCC5=C(Br)C(=O)CCC5(C)C4CCC32C)cc1` (some centres not stated) [4-Bromo-3,20-dioxopregn-4-ene-17-yl-4-ethylbenzoate (8b)] returned an IC50 of 50 nM.

These data come from BindingDB's records for doi:10.3109/14756366.2010.548330 (Metropolitan University-Xochimilco, 2011).
